Drawing on ChEMBL document CHEMBL1143518, “Binding of isotryptamines and indenes at h5-HT6 serotonin receptors” (Bioorg Med Chem Lett, 2005), this text covers Ki for 12 compounds.

The Ki is a measure of affinity in units of concentration, obtained from inhibition or displacement. A low value points to higher affinity.

The target in the assay is 5-hydroxytryptamine receptor 6 (Homo sapiens, UniProt P50406). In words: Binding affinity against human 5-Hydroxytryptamine 6 receptor expressed in HEK293 cells using [3H]LSD done for 90 minutes at pH 7.4 at room temperature. It is filed as cell-based.
5-hydroxytryptamine receptor 6, sequence (P50406 whole entry): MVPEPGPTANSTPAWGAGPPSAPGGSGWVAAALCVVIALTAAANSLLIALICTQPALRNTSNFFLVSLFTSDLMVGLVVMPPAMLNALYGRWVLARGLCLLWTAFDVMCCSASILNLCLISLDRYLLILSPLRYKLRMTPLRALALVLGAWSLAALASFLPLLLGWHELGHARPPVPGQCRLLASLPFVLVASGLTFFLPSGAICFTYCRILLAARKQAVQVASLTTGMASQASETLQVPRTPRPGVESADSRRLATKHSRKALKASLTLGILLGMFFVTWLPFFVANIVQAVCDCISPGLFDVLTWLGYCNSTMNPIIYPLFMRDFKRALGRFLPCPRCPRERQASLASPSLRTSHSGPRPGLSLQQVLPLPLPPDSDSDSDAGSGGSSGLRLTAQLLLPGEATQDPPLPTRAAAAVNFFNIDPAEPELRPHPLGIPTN
Regarding `Nc1ccc(CC2=CCc3ccccc32)cc1`, affinity was put at a Ki of 11.8 µM.

On to `Nc1ccc(CC2CCc3ccccc32)cc1` (configuration not stated), for which the Ki was determined as 6.1 µM. In turn, `Nc1ccc(/C=C2\C=Cc3ccccc32)cc1` showed a Ki of 0.64 µM. `Nc1ccc(S(=O)(=O)C2CCc3ccccc32)cc1` (configuration not stated) displayed a Ki of 0.74 µM. With `Nc1ccc(Cc2c[nH]c3ccccc23)cc1`, the Ki was 2.53 µM. Compound `Nc1ccc(SC2CCc3ccccc32)cc1` (configuration not stated) had a Ki of 4.2 µM. `Nc1ccc(CC2C=Cc3ccccc32)cc1` (configuration not stated) came in with a Ki of 4.47 µM.

In turn, `CNCCC1=CC(CCc2ccccc2)c2ccccc21` (configuration not stated) showed a Ki of 0.1 µM. Consider `CN(C)CCn1cc(Cc2ccc(N)cc2)c2ccccc21`, for which affinity was put at a Ki of 0.05 µM. `CN(C)CCC1=C/C(=C\c2ccccc2)c2ccccc21` came in with a Ki of 0.057 µM. On to `CN(C)CCc1cn(CCc2ccccc2)c2ccccc12`, for which affinity was put at a Ki of 0.012 µM. For `CNCCC1=CC(Cc2ccccc2)c2ccccc21` (configuration not stated) the value was 0.003 µM.
